Measured values reported in PubChem BioAssay AID2060341 (Molecular Pharmacology Branch, DTP, NCI, 2025).
Several values for one entry are separate records, joined by “and”; a condition that tells them apart may be missing. Identical values can stand only once. Each block holds one molecule with its values, some of them ahead of it.

System: 327498-153-R-J2-PDC multicell spheroid viability
Assay: Anticancer human tumor 327498-153-R-J2-PDC patient-derived uterine carcinosarcoma cell line growth inhibition [IpAb]
Settings: for viability, T/C: stronger effect = lower value
Source text: Combinatorial screen of targeted agents with ipatasertib and abemaciclib in multi-cell type tumor spheroids
A high-throughput screen of multi-cell type tumor spheroids was designed to identify active combinations of targeted small molecules and ipatasertib or abemaciclib. Complex spheroids include a stromal component modeled by human endothelial cells (HUVEC) and fibroblasts modeled by human mesenchymal stem cells (MSCs). The concentration ranges selected for each drug and investigational agent were based upon clinically achievable concentrations if the clinical Cmax of the agent was known.
Compounds. The drugs and investigational agents: ipatasertib (NSC767898), abemaciclib(NSC768073), selumetinib (NSC741078), trametinib (758246), adavosertib (NSC754352), everolimus (NSC733504), sapanisertib (NSC764658), vemurafenib (NSC761431), venetoclax (NSC766270), copanlisib (NSC809693), apelisib (NSC765974), palbociblib (NSC758247), vemurafenib (NSC761431), dabrafenib (NSC764134), ravoxertinib (NSC781343), BMS-387032 (NSC767048), sotorasib (NSC818433), talazoparib (NSC767125) and afursertib (NSC778305), were obtained from the National Cancer Institute (NCI) Developmental Therapeutics Program Chemical Repository. The FDA-approved anticancer drug set is available from the NCI Developmental Therapeutics Program. […] The stock solutions were prepared in dimethyl sulfoxide (DMSO, Sigma-Aldrich, St. Louis, MO, cat. D2650) at 800-fold the tested concentration and stored at -70 degrees C prior to their use. All drugs and investigational agents were tested over a range starting from a high concentration at or near the clinical Cmax and decreasing in half-log increments. If the clinical Cmax for an agent had not been determined, the highest concentration tested was 10 microM.
NCI60 Cell Culture. NCI60 cell lines were obtained from the NCI Developmental Therapeutics Program Tumor Repository. For each lot of cells, the Repository performed Applied Biosystems AmpFLSTR Identifiler testing with PCR amplification to confirm consistency with the published Identifier STR profile for each cell line. Cells were kept in continuous culture for no more than 20 passages. The optimal seeding densities for each of the cell lines at each time point assessed were determined prior to performing the concentration response studies. Briefly, the NCI60 human tumor lines were grown as monolayers in RPMI 1640 medium supplemented with 10% FBS and 2 mmol/L L-glutamine.
An additional 9 lines were from the NCI60 cell line panel including MDA-MB-231 breast carcinoma, MDA-MB-468 breast carcinoma, MCF7 breast carcinoma, Hs578T breast carcinoma, MALME-3M melanoma, SK-MEL-2 melanoma, SK-OV-3 ovarian carcinoma, DU-145 prostate carcinoma, PC-3 prostate carcinoma, all cell lines along with major genetic alterations are listed on Table 2. Pooled donor human umbilical vein endothelial cells (HUVEC, Lonza, cat. CC-2519) and human mesenchymal stem cells (hMSC, Lonza, cat. PT-2501) were purchased from Lonza (Walkersville, MD).
PDMR cell lines were grown in complete medium (DC medium): Dulbecco's modified Eagle's medium (DMEM)/F12 supplemented with 5% fetal bovine serum (FBS), 2 mM L-glutamine, 100 U/mL penicillin and 100 µg/ml streptomycin, 0.4 µg/ml hydrocortisone, 10 ng/ml epidermal growth factor (EGF) recombinant human protein, 24 µg/mL adenine, and 0.1 mg/mL primocin. During culture from frozen stock vials, PDMR cells were cultured in the same medium containing 10 µM Y-27632 (see Table 3). The PDCs were cultured in complete DMEM/F12 media without 10 microM Y-27632 dihydrochloride for at least two passages prior to the screen. The pooled donor HUVEC and hMSC were cultured in endothelial cell growth medium 2 (PromoCell, Heidelberg, Germany, cat. C-22011) and mesenchymal stem cell growth medium 2 (PromoCell, cat. C-28009), respectively. For all experiments, HUVEC and hMSC were used at passages </=5.
[…]

[1] = curve of first compound, second compound 0.1 µM
[2] = curve of first compound, second compound 0.316 µM
[3] = curve of first compound, second compound 1 µM
[4] = curve of first compound, second compound 3.16 µM
[5] = curve of first compound, second compound 10 µM
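Further: spheroids exposed to agents for 7 days.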
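Wherever viability, T/C is given: 100% = DMSO vehicle control viability.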

SMILES: CC(C)(C)c1cnc(CSc2cnc(NC(=O)C3CCNCC3)s2)o1 + CC(C)NCC(C(=O)N1CCN(c2ncnc3c2C(C)CC3O)CC1)c1ccc(Cl)cc1
- IC50 [1]: 131 nM
- IC50 [2]: 109 nM
- IC50 [3]: 45.4 nM
- IC50 [4]: < 9.49 nM
- IC50 [5]: < 9.49 nM
- viability, T/C (second compound 0.1 µM, first compound 0.00949 µM): 101%
- viability, T/C (second compound 0.1 µM, first compound 0.03 µM): 103%
- viability, T/C (second compound 0.1 µM, first compound 0.0949 µM): 69.1%
- viability, T/C (second compound 0.1 µM, first compound 0.3 µM): 1.04%
- viability, T/C (second compound 0.1 µM, first compound 0.949 µM): 0.63%
- viability, T/C (second compound 0.1 µM, first compound 3 µM): 0.58%
- viability, T/C (second compound 0.316 µM, first compound 0.00949 µM): 80.3%
- viability, T/C (second compound 0.316 µM, first compound 0.03 µM): 82.2%
- viability, T/C (second compound 0.316 µM, first compound 0.0949 µM): 56.9%
- viability, T/C (second compound 0.316 µM, first compound 0.3 µM): 0.5%
- viability, T/C (second compound 0.316 µM, first compound 0.949 µM): 0.5%
- viability, T/C (second compound 0.316 µM, first compound 3 µM): 0.49%
- viability, T/C (second compound 1 µM, first compound 0.00949 µM): 56.2%
- viability, T/C (second compound 1 µM, first compound 0.03 µM): 57.9%
- viability, T/C (second compound 1 µM, first compound 0.0949 µM): 37.6%
- viability, T/C (second compound 1 µM, first compound 0.3 µM): 0.39%
- viability, T/C (second compound 1 µM, first compound 0.949 µM): 0.44%
- viability, T/C (second compound 1 µM, first compound 3 µM): 0.45%
- viability, T/C (second compound 3.16 µM, first compound 0.00949 µM): 48%
- viability, T/C (second compound 3.16 µM, first compound 0.03 µM): 45.8%
- viability, T/C (second compound 3.16 µM, first compound 0.0949 µM): 28.7%
- viability, T/C (second compound 3.16 µM, first compound 0.3 µM): 0.18%
- viability, T/C (second compound 3.16 µM, first compound 0.949 µM): 0.36%
- viability, T/C (second compound 3.16 µM, first compound 3 µM): 0.34%
- viability, T/C (second compound 10 µM, first compound 0.00949 µM): 36.6%
- viability, T/C (second compound 10 µM, first compound 0.03 µM): 38%
- viability, T/C (second compound 10 µM, first compound 0.0949 µM): 15.1%
- viability, T/C (second compound 10 µM, first compound 0.3 µM): 0.21%
- viability, T/C (second compound 10 µM, first compound 0.949 µM): 0.55%
- viability, T/C (second compound 10 µM, first compound 3 µM): 0.37%

SMILES: COc1c(OCCCN2CCOCC2)ccc2c3n(c(=NC(=O)c4cnc(N)nc4)nc12)CCN3 + CC(C)NCC(C(=O)N1CCN(c2ncnc3c2C(C)CC3O)CC1)c1ccc(Cl)cc1
- IC50 [1]: 45.9 nM
- IC50 [2]: 35.8 nM
- IC50 [3]: 4.21 nM
- IC50 [4]: < 3.16 nM
- IC50 [5]: < 3.16 nM
- viability, T/C (second compound 0.1 µM, first compound 0.00316 µM): 81.6%
- viability, T/C (second compound 0.1 µM, first compound 0.01 µM): 74.9%
- viability, T/C (second compound 0.1 µM, first compound 0.0316 µM): 58%
- viability, T/C (second compound 0.1 µM, first compound 0.1 µM): 33.3%
- viability, T/C (second compound 0.1 µM, first compound 0.316 µM): 16.8%
- viability, T/C (second compound 0.1 µM, first compound 1 µM): 9.2%
- viability, T/C (second compound 0.316 µM, first compound 0.00316 µM): 67.2%
- viability, T/C (second compound 0.316 µM, first compound 0.01 µM): 67.5%
- viability, T/C (second compound 0.316 µM, first compound 0.0316 µM): 52.1%
- viability, T/C (second compound 0.316 µM, first compound 0.1 µM): 27.5%
- viability, T/C (second compound 0.316 µM, first compound 0.316 µM): 15.2%
- viability, T/C (second compound 0.316 µM, first compound 1 µM): 8.52%
- viability, T/C (second compound 1 µM, first compound 0.00316 µM): 53.5%
- viability, T/C (second compound 1 µM, first compound 0.01 µM): 39.2%
- viability, T/C (second compound 1 µM, first compound 0.0316 µM): 32.4%
- viability, T/C (second compound 1 µM, first compound 0.1 µM): 21.1%
- viability, T/C (second compound 1 µM, first compound 0.316 µM): 9.37%
- viability, T/C (second compound 1 µM, first compound 1 µM): 7.49%
- viability, T/C (second compound 3.16 µM, first compound 0.00316 µM): 42.2%
- viability, T/C (second compound 3.16 µM, first compound 0.01 µM): 33.3%
- viability, T/C (second compound 3.16 µM, first compound 0.0316 µM): 23.6%
- viability, T/C (second compound 3.16 µM, first compound 0.1 µM): 15%
- viability, T/C (second compound 3.16 µM, first compound 0.316 µM): 8.38%
- viability, T/C (second compound 3.16 µM, first compound 1 µM): 5.77%
- viability, T/C (second compound 10 µM, first compound 0.00316 µM): 34.2%
- viability, T/C (second compound 10 µM, first compound 0.01 µM): 25.9%
- viability, T/C (second compound 10 µM, first compound 0.0316 µM): 22.4%
- viability, T/C (second compound 10 µM, first compound 0.1 µM): 11.9%
- viability, T/C (second compound 10 µM, first compound 0.316 µM): 7.65%
- viability, T/C (second compound 10 µM, first compound 1 µM): 4.58%

- IC50 (curve of compound): 169 nM
SMILES: CC(C)(C)c1cnc(CSc2cnc(NC(=O)C3CCNCC3)s2)o1
- viability, T/C (compound 0.00949 µM): 106% and 96.9%
- viability, T/C (compound 0.03 µM): 108% and 105%
- viability, T/C (compound 0.0949 µM): 95.8% and 93.2%
- viability, T/C (compound 0.3 µM): 4.76% and 7%
- viability, T/C (compound 0.949 µM): 0.89% and 1.1%
- viability, T/C (compound 3 µM): 0.6% and 0.58%
